Measured values as given in patent US10752587B2, “Homobispiperidinyl derivatives as liver X receptor beta agonists, compositions and their use” (Merck Sharp & Dohme Corp., priority 2015, dated 2020).
Read-outs that look alike come from different tables or passages of the source.

How the values were obtained:
[1] = molecular target: T1, glutathione-S-transferase (GST) tagged LXRalpha LBD (ligand binding domain) (Homo sapiens, UniProt Q13133); assay: LanthaScreen TR-FRET Liver X Receptor Coactivator Assay, co-activator recruitment to LXRalpha LBD; type: biochemical; details: for EC50 / LXR alpha IP (nM): potency (Inflection Point, IP), co-activator recruitment to LXRalpha LBD, in relation to T0901317; for EC50: read-out: LXR alpha IP
T1 construct: purchased Invitrogen pv4655
T1 sequence (Q13133 209-447 limits assumed): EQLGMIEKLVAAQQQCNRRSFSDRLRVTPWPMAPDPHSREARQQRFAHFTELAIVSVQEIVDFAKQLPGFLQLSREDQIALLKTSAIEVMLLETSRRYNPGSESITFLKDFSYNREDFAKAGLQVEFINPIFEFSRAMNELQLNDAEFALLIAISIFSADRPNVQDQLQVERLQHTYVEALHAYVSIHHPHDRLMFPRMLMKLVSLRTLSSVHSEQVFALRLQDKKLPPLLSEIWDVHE
Outline: (§1)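 Compound-induced coactivator recruitment by the GST-fused ligand binding domain, detected as TR-FRET between Tb-labelled anti-GST antibody and fluorescein-tagged coactivator peptide after room-temperature incubation. IP and Emax expressed versus T0901317 as reference agonist.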

[2] = molecular target: T2, glutathione-S-transferase (GST) tagged LXRbeta LBD (ligand binding domain) (Homo sapiens, UniProt P55055); assay: LanthaScreen TR-FRET Liver X Receptor Coactivator Assay, co-activator recruitment to LXRbeta LBD; type: biochemical
T2 construct: purchased Invitrogen pv4658.pps
T2 sequence (P55055 222-460 limits assumed): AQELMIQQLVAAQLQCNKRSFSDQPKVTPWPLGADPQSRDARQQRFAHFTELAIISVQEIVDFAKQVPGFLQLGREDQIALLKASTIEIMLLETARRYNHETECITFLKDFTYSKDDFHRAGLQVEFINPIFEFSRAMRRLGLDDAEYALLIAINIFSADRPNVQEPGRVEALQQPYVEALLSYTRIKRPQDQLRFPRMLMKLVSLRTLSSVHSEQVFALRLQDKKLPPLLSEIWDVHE
Outline: as §1

[3] = efficacy at max dose, in relation to reference dual agonist T0901317, read-out: LXR alpha Activity @ max dose (%)
[4] = efficacy at max dose, in relation to reference dual agonist T0901317, read-out: LXR beta Activity @ max dose (%)
[5] = potency (Inflection Point, IP), co-activator recruitment to LXRbeta LBD, in relation to T0901317, read-out: LXR beta IP
[6] = efficacy at max dose, in relation to reference dual agonist T0901317

SMILES	Emax [1, 3] [%]	EC50 [1] [nM]	Emax [2, 4] [%]	EC50 [2, 5] [nM]	LXR alpha IP (nM) [1]	other results
CN(C)C(=O)c1ccc(N2CCC(CC3CCN(C(=O)[C@](O)(c4cccc(C(F)(F)F)c4)C(F)(F)F)CC3)CC2)nc1Cl [Example 7-87, 2-chloro-N,N-dimethyl-6-{4-[(1-{(2R)-3,3,3-trifluoro-2-hydroxy-2-[3-(trifluoromethyl)phenyl]propanoyl}piperidin-4-yl)methyl]piperidin-1-yl}pyridine-3-carboxamide]	23	252	69	7		
CC(C)Oc1cccc([C@@](O)(C(=O)N2CCC(C)(CC3CCN(c4ccc(C(=O)N(C)C)c(Cl)n4)CC3)CC2)C(F)(F)F)c1 [Example 7-48, 2-chloro-N,N-dimethyl-6-{4-[(4-methyl-1-{(2R)-3,3,3-trifluoro-2-hydroxy-2-[3-(1-methylethoxy)phenyl]propanoyl}piperidin-4-yl)methyl]piperidin-1-yl}pyridine-3-carboxamide]	16		64	10	NO IP	
CCc1cccc(C(O)(C(=O)N2CCC(CC3CCN(c4ccc(C(=O)N(C)C)c(Cl)n4)CC3)CC2)C(F)(F)F)c1 (centres unmarked) [Example 7-90, 2-chloro-6-[4-({1-[2-(3-ethylphenyl)-3,3,3-trifluoro-2-hydroxypropanoyl]piperidin-4-yl}methyl)piperidin-1-yl]-N,N-dimethylpyridine-3-carboxamide]	10		41	6	NO IP	
Cc1cccc([C@@](O)(C(=O)N2CCC(CC3CCN(c4ccc(C(=O)N(C)C)cc4)CC3)CC2)C(F)(F)F)c1 [Example 2-129, N,N-dimethyl-4-[4-({1-[(2R)-3,3,3-trifluoro-2-hydroxy-2-(3-methylphenyl)propanoyl]piperidin-4-yl}methyl)piperidin-1-yl]benzamide]	5		51	51	NO IP	
Cc1cccc([C@@](O)(C(=O)N2CCC(CC3CCN(c4ccc(C(=O)N(C)C)c(Cl)c4)CC3)CC2)C(F)(F)F)c1 [Example 2-112, 2-chloro-N,N-dimethyl-4-[4-({1-[(2R)-3,3,3-trifluoro-2-hydroxy-2-(3-methylphenyl)propanoyl]piperidin-4-yl}methyl)piperidin-1-yl]benzamide]	10		44	8	NO IP	
CN(C)C(=O)c1ccc(N2CCC(CC3CCN(C(=O)C(O)(c4cccnc4)C(F)(F)F)CC3)CC2)cc1Cl (centres unmarked) [Example 2-90, 2-chloro-N,N-dimethyl-4-(4-{[1-(3,3,3-trifluoro-2-hydroxy-2-pyridin-3-ylpropanoyl)piperidin-4-yl]methyl}piperidin-1-yl)benzamide]	46	3550	99	78		
O=C(c1ccc(N2CCC(CC3CCN(C(=O)[C@](O)(c4cc(Cl)cc(Cl)c4)C(F)(F)F)CC3)CC2)cc1Cl)N1CCC[C@@H]1CO [Example 4-23, (2R)-3-(4-{[1-(3-chloro-4-{[(2R)-2-(hydroxymethyl)pyrrolidin-1-yl]carbonyl}phenyl)piperidin-4-yl]methyl}piperidin-1-yl)-2-(3,5-dichlorophenyl)-1,1,1-trifluoro-3-oxopropan-2-ol]	4		30	51	NO IP	
CN(C)C(=O)c1ncc(N2CCC(CC3CCN(C(=O)C(O)(c4cccc(Cl)c4)C(F)(F)F)CC3)CC2)cc1Cl (centres unmarked) [Example 2-6, 3-chloro-5-[4-({1-[2-(3-chlorophenyl)-3,3,3-trifluoro-2-hydroxy-propanoyl]piperidin-4-yl}methyl)piperidin-1-yl]-N,N-dimethylpyridine-2-carboxamide]	26	875	60	22		
CN(C)C(=O)c1ccc(N2CCC(CC3(C)CCN(C(=O)[C@](O)(c4cc(F)cc(Cl)c4)C(F)(F)F)CC3)CC2)nc1Cl [Example 7-46, 2-chloro-6-[4-({1-[(2R)-2-(3-chloro-5-fluorophenyl)-3,3,3-trifluoro-2-hydroxypropanoyl]-4-methylpiperidin-4-yl}methyl)piperidin-1-yl]-N,N-dimethylpyridine-3-carboxamide]	46	40	109	2		
CN(C)C(=O)c1ccc(N2CCC(CC3CCN(C(=O)C(O)(c4ccccc4)C4CCCC4)CC3)CC2)nc1Cl (centres unmarked) [Example 7-94, 2-chloro-6-[4-({1-[cyclopentyl(hydroxy)phenylacetyl]piperidin-4-yl}methyl)piperidin-1-yl]-N,N-dimethylpyridine-3-carboxamide]					NO IP	Emax ([1]; read-out: LXR alpha Activity @ max dose (%)): 10%; EC50 ([2]; LXR beta IP (nM), potency (Inflection Point, IP), co-activator recruitment to LXRbeta LBD, in relation to T0901317): 72 nM; Emax ([2]; read-out: LXR beta Activity @ max dose (%)): 62%
CN(C)C(=O)c1ccc(N2CCC(CC3CCN(C(=O)[C@](O)(c4ccccc4)C(F)(F)C(F)(F)F)CC3)CC2)cc1Cl [Example 2-13, 2-chloro-N,N-dimethyl-4-[4-({1-[(2R)-3,3,4,4,4-pentafluoro-2-hydroxy-2-phenylbutanoyl]piperidin-4-yl}methyl)piperidin-1-yl]benzamide]		177				LXR alpha Activity @ max dose (%) [1, 6]: 56%; LXR beta Activity @ max dose (%) [2, 6]: 119%
CNC(=O)c1ccc(N2CCC(CC3CCN(C(=O)[C@](O)(c4ccccc4)C(F)(F)C(F)(F)F)CC3)CC2)nc1Cl [Example 7-131, 2-chloro-N-methyl-6-[4-({1-[(2R)-3,3,4,4,4-pentafluoro-2-hydroxy-2-phenylbutanoyl]piperidin-4-yl}methyl)piperidin-1-yl]pyridine-3-carboxamide]	74	373	145	27		
CN(C)C(=O)c1ccc(N2CCC(OC3CCN(C(=O)C4(C(F)(F)F)CCCCC4)CC3)CC2)cc1Cl [Example 2-19, 2-chloro-N,N-dimethyl-4-{4-[(1-{[1-(trifluoromethyl)cyclohexyl]carbonyl}piperidin-4-yl)oxy]piperidin-1-yl}benzamide]	23	1810	75	206		
CN(C)CCN(C)C(=O)c1ccc(N2CCC(CC3CCN(C(=O)[C@](O)(c4ccccc4)C(F)(F)F)CC3)CC2)cc1Cl [Example 4-13, 2-chloro-N-[2-(dimethylamino)ethyl]-N-methyl-4-[4-({1-[(2R)-3,3,3-trifluoro-2-hydroxy-2-phenylpropanoyl]piperidin-4-yl}methyl)piperidin-1-yl]benzamide]	30	678	62	21		
CC(C)Oc1cccc([C@@](O)(C(=O)N2CCC(CC3CCN(c4ccc(C(N)=O)c(Cl)c4)CC3)CC2)C(F)(F)F)c1 [Example 12-7, 2-chloro-4-{4-[(1-{(2R)-3,3,3-trifluoro-2-hydroxy-2-[3-(1-methylethoxy)phenyl)-propanoyl}piperidin-4-yl)methyl]piperidin-1-yl}benzamide]						LXR alpha IP (Inflection Point, potency) ([1]; co-activator recruitment to GST-LXRalpha LBD, TR-FRET): NO IP; Emax ([1]; efficacy in relation to reference dual agonist T0901317, read-out: LXR alpha Activity @ max dose): 12%; EC50 ([2]; co-activator recruitment to GST-LXRbeta LBD, TR-FRET, read-out: LXR beta IP (Inflection Point, potency)): 6 nM; Emax ([2]; efficacy in relation to reference dual agonist T0901317, read-out: LXR beta Activity @ max dose): 33%
